# Experimental data from paper PMC8482815, “Targeting Host Glycolysis as a Strategy for Antimalarial Development” (Frontiers in Cellular and Infection Microbiology, 2021).
# Several values for one entry are separate records, joined by “and”; a condition that tells them apart may be missing. Identical values can stand only once.
# Tested on: human erythrocytes
# Test: Untargeted metabolomics and 13C-glucose tracing of enolase inhibitor treated erythrocytes
# Type: cell-based
# Details: 0.5h
# Protocol: Freshly collected erythrocytes were washed, resuspended to 10% hematocrit in buffer [25mM HEPES (pH 7.4), 120mM NaCl, 5.4mM KCl, 1.8mM CaCl2, and 1mM NaH2PO4], incubated for 1 hour at 37°C, then centrifuged at 2000xg for 5 minutes at 4°C, resuspended in fresh wash buffer to 30-40% hematocrit, and split into 210µL aliquots of packed erythrocytes. […] All samples were incubated at 37°C shaking at 500 RPM. Triplicate samples of supernatants and packed erythrocytes were collected at 0, 0.5, 1, and 6-hour intervals and snap-frozen in liquid N2.
# RBC and media samples were extracted at 1:10 and 1:20 dilutions, respectively, in 5:3:2 MeOH : MeCN:H2O v/v/v, and supernatants analyzed on a Thermo Vanquish UHPLC coupled to a Thermo Q Exactive mass spectrometer, as extensively described ([Nemkov et al., 2015]; [Nemkov et al., 2017]). The extraction buffer was supplemented with 40uM 3-^13C lactate to allow absolute quantification of lactate isotopologues, including lactate generated via glycolysis ([1,2,3-^13C3] enriched) vs. the pentose phosphate pathway ([2,3-^13C2] enriched), as described ([Reisz et al., 2016]). Metabolite assignments, peak area integration and isotopologues distributions were determined using Maven (Princeton University) ([Nemkov et al., 2015]; [Nemkov et al., 2017]).
# Data were auto-scaled and normalized to zero-hour time points. Metabolites were removed from the dataset if greater than 50% of the samples contained missing values or the relative standard deviation among replicates exceeded 25%. Additionally, data was filtered using the interquartile range to reduce near-constant values from the experiment by 5%.
# A principal component analysis of preprocessed data was plotted with the 95% confidence interval minimum volume enclosing ellipsoid for each respective group (MetaboAnalyst, cluster, plotly). A two-way repeated measures analysis of variance (ANOVA) was performed with multiple comparisons corrected for using a false discovery rate p-value cutoff of 0.05. Metabolite-Pathway analysis was performed using the R package of MetaboAnalyst, as previously described ([Xia and Wishart, 2010]). Metabolite-Protein nodal analysis was performed using omicsnet.ca and as previously described ([Zhou and Xia, 2018]).
# [1] = treated erythrocytes, one value per replicate sample, polarity +
# [2] = treated erythrocytes, one value per replicate sample, polarity -
# [3] = treated erythrocytes, replicate samples
smiles,measurement,setting,value
CC(C)(C)C(=O)OCOP(=O)(OCOC(=O)C(C)(C)C)C1CCCN(O)C1=O (stereo not shown) [POMHEX],AMP level (metabolomics signal),replicate samples,2.04E+06 and 4.36E+06 and 1.74E+06
same,ATP level (metabolomics signal),replicate samples,4.24E+03 and 2.55E+03 and 4.82E+03
same,Adenine level (metabolomics signal),replicate samples,1.54E+05 and 1.61E+05 and 1.63E+05
same,Cytosine level (metabolomics signal),replicate samples,6.37E+05 and 5.53E+05 and 6.73E+05
same,L-alanine level (metabolomics signal),replicate samples,1.10E+07 and 9.02E+06 and 1.16E+07
same,L-arginine level (metabolomics signal),replicate samples,8.79E+06 and 1.37E+07 and 1.09E+07
same,L-asparagine level (metabolomics signal),replicate samples,5.66E+06 and 6.04E+06 and 5.52E+06
same,L-aspartate level (metabolomics signal),replicate samples,5.07E+07 and 4.67E+07 and 4.55E+07
same,L-cysteine level (metabolomics signal),replicate samples,3.90E+05 and 9.84E+05 and 3.84E+05
same,L-glutamate level (metabolomics signal),replicate samples,3.66E+07 and 3.55E+07 (2×)
same,L-glutamine level (metabolomics signal),replicate samples,6.00E+07 and 6.77E+07 and 7.03E+07
same,L-histidine level (metabolomics signal),replicate samples,1.31E+06 and 1.35E+06 and 1.30E+06
same,L-isoleucine level (metabolomics signal),replicate samples,1.70E+07 and 1.55E+07 and 1.61E+07
same,L-leucine level (metabolomics signal),replicate samples,2.16E+08 and 2.81E+08 and 2.05E+08
same,L-lysine level (metabolomics signal),replicate samples,2.55E+06 and 2.50E+06 and 1.99E+06
same,L-methionine level (metabolomics signal),replicate samples,1.95E+07 and 2.57E+07 and 1.85E+07
same,L-phenylalanine level (metabolomics signal),replicate samples,1.37E+07 and 1.80E+07 and 1.25E+07
same,L-proline level (metabolomics signal),replicate samples,4.87E+07 and 5.22E+07 and 3.89E+07
same,L-serine level (metabolomics signal),replicate samples,4.56E+06 and 4.84E+06 and 4.45E+06
same,L-threonine level (metabolomics signal),replicate samples,6.27E+06 and 7.92E+06 and 7.08E+06
same,L-tryptophan level (metabolomics signal),replicate samples,5.02E+06 and 4.78E+06 and 4.62E+06
same,L-tyrosine level (metabolomics signal),replicate samples,2.37E+07 (2×) and 3.01E+07
same,L-valine level (metabolomics signal),replicate samples,1.71E+08 and 1.67E+08 and 1.60E+08
same,dCMP level (metabolomics signal),replicate samples,2.34E+04 and 2.37E+04 and 1.78E+04
same,dTMP level (metabolomics signal),replicate samples,9.79E+05 and 1.15E+06 and 1.17E+06
same,glycine level (metabolomics signal),replicate samples,2.21E+06 and 2.32E+06 and 2.35E+06
same,N-Acyl-D-aspartate (C06380) metabolite signal,[1],2.31E+05 and 2.56E+05 and 2.58E+05
same,Poly-gamma-D-glutamate (C05723) metabolite signal,[1],3.95E+07 and 4.61E+07 and 4.86E+07
same,D-Ribitol 5-phosphate (C01068) metabolite signal,[2],2.02E+04 and 2.67E+04 and 2.32E+04
same,"D-glucono-1,5-lactone (C00198) metabolite signal",[2],5.42E+05 and 4.39E+05 and 4.31E+05
same,L-Noradrenaline (C00547) metabolite signal,[2],7.51E+04 and 1.32E+05 and 6.59E+04
same,Oxalosuccinate (C05379) metabolite signal,[2],1.39E+05 and 1.40E+05 and 1.27E+05
same,Pyridoxamine (C00534) metabolite signal,[2],3.25E+04 and 2.97E+04 and 2.95E+04
same,Thioredoxin disulfide (C00343) metabolite signal,[2],5.85E+04 and 1.53E+04 and 4.46E+04
same,1-4-beta-D-Xylan (metabolite signal),[3],2.40E+05 and 2.75E+05 and 1.64E+05
same,2-Hydroxyglutarate/Citramalate (C02630) metabolite signal,[3],1.06E+05 and 6.70E+04 and 9.81E+04
same,5-6-Dihydrothymine (C00906) metabolite signal,[3],3.14E+05 and 2.95E+05 and 2.82E+05
same,5-10-Methenyltetrahydrofolate (metabolite signal),[3],3.07E+05 and 3.19E+05 and 3.47E+05
same,5-Hydroxyisourate (C11821) metabolite signal,[3],6.72E+06 and 4.60E+06 and 5.11E+06
same,5-L-Glutamyl-taurine (metabolite signal),[3],1.65E+05 and 1.74E+05 and 8.68E+04
same,5-Oxoproline (metabolite signal),[3],1.01E+06 and 8.27E+05 and 8.80E+05
same,(S)(+)-Allantoin (C02350) metabolite signal,[3],2.15E+04 and 0.00E+00 and 2.93E+04
same,Allantoate (C00499) metabolite signal,[3],2.52E+05 and 3.85E+05 and 2.39E+05
same,Ascorbate (metabolite signal),[3],9.38E+04 and 1.10E+05 and 1.13E+05
same,CMP-N-acetylneuraminate (metabolite signal),[3],2.14E+04 and 1.46E+04 and 2.19E+04
same,Carnosine (metabolite signal),[3],2.66E+05 and 1.54E+05 and 2.52E+05
same,Citrate (C00158) metabolite signal,[3],4.21E+04 and 3.38E+04 and 3.43E+04
same,Creatine (metabolite signal),[3],3.82E+08 and 3.13E+08 and 3.15E+08
same,Creatinine (metabolite signal),[3],3.99E+06 and 3.09E+06 and 3.73E+06
same,Cys-Gly (metabolite signal),[3],2.17E+06 and 2.13E+06 and 1.97E+06
same,D-Glucosamine (metabolite signal),[3],2.57E+05 and 3.05E+05 and 2.16E+05
same,D-Glucose (C00031) metabolite signal,[3],6.04E+06 and 6.91E+06 and 5.92E+06
same,D-Ribose (C00121) metabolite signal,[3],1.90E+05 and 1.42E+05 and 1.71E+05
same,Dehydroascorbate (metabolite signal),[3],1.55E+04 and 2.20E+04 and 1.72E+04
same,Dihydrofolate (metabolite signal),[3],1.72E+06 and 1.97E+06 and 2.05E+06
same,Dimethylglycine (metabolite signal),[3],1.06E+06 and 1.08E+06 and 9.75E+05
same,Diphosphate (C00013) metabolite signal,[3],3.53E+03 and 8.59E+03 and 2.40E+03
same,Fumarate (C00122) metabolite signal,[3],1.24E+05 and 9.52E+04 and 1.10E+05
same,Glutathione (C00051) metabolite signal,[3],1.46E+08 and 1.38E+08 and 1.22E+08
same,Glutathione disulfide (metabolite signal),[3],2.34E+05 and 1.46E+05 and 2.55E+05
same,Hypoxanthine (C00262) metabolite signal,[3],4.07E+04 and 4.68E+04 and 4.37E+04
same,IMP (C00130) metabolite signal,[3],0.00E+00 and 1.71E+05 and 8.01E+04
same,Inosine (C00294) metabolite signal,[3],1.09E+05 and 6.95E+04 and 7.35E+04
same,L-Citrulline (metabolite signal),[3],4.16E+06 and 4.12E+06 and 4.14E+06
same,L-Homoserine (metabolite signal),[3],1.91E+05 and 2.39E+05 and 1.86E+05
same,Lactate (C01432) metabolite signal,[3],8.53E+06 and 7.59E+06 and 8.32E+06
same,Malate (C00149) metabolite signal,[3],2.09E+05 and 1.30E+05 and 1.62E+05
same,Mannitol (C00392) metabolite signal,[3],1.34E+05 and 1.15E+05 and 1.42E+05
same,N-Acetylneuraminate (metabolite signal),[3],3.02E+04 and 1.89E+04 and 1.91E+04
same,N-Glycoloyl-neuraminate (metabolite signal),[3],1.66E+05 and 1.75E+05 and 1.62E+05
same,NAD+ (C00003) metabolite signal,[3],5.24E+05 and 2.47E+05 and 4.46E+05
same,Nicotinamide (C00153) metabolite signal,[3],3.74E+07 and 4.23E+07 and 3.90E+07
same,Ornithine (metabolite signal),[3],2.17E+06 and 2.00E+06 and 1.65E+06
same,Oxaloacetate (C00036) metabolite signal,[3],3.93E+04 and 5.60E+04 and 5.05E+04
same,Phosphoserine (metabolite signal),[3],5.17E+04 and 3.63E+04 and 3.54E+04
same,Putrescine (metabolite signal),[3],7.82E+04 and 7.87E+04 and 8.82E+04
same,Pyridoxal (C00250) metabolite signal,[3],7.34E+04 and 7.61E+04 and 7.64E+04
same,Pyruvate (C00022) metabolite signal,[3],5.86E+05 and 6.64E+05 and 6.39E+05
same,S-Glutathionyl-L-cysteine (metabolite signal),[3],1.61E+05 and 1.05E+05 and 1.77E+05
same,Sedoheptulose 1-phosphate (C06222) metabolite signal,[3],1.57E+04 and 1.33E+04 and 1.23E+04
same,Spermidine (metabolite signal),[3],1.10E+07 and 8.21E+06 and 9.51E+06
same,Spermine (metabolite signal),[3],1.10E+07 and 9.13E+06 and 8.60E+06
same,Succinate (C00042) metabolite signal,[3],7.14E+04 and 9.44E+04 and 6.66E+04
same,Thymidine (C00214) metabolite signal,[3],1.01E+04 and 1.94E+04 and 1.37E+04
same,UDP (C00015) metabolite signal,[3],1.69E+05 and 2.66E+05 and 2.03E+05
same,UDP-N-acetyl-D-glucosamine (metabolite signal),[3],1.85E+04 (2×) and 1.14E+04
same,UDP-glucose (C00029) metabolite signal,[3],3.86E+04 and 2.14E+04 and 2.96E+04
same,Urate (C00366) metabolite signal,[3],3.40E+04 and 3.79E+04 and 3.24E+04
same,Xanthine (C00385) metabolite signal,[3],3.40E+05 and 3.32E+05 and 3.09E+05
same,alpha-D-Glucosamine 1-phosphate (metabolite signal),[3],2.32E+06 and 1.61E+06 and 1.74E+06
same,alpha-D-Ribose 1-phosphate (C00620) metabolite signal,[3],1.49E+05 and 1.17E+05 and 8.56E+04
same,gamma-Glutamyl-gamma-aminobutyrate (metabolite signal),[3],9.84E+04 and 1.13E+05 and 1.05E+05
same,gamma-L-Glutamyl-D-alanine (metabolite signal),[3],3.61E+04 and 2.95E+04 and 2.86E+04
same,gamma-L-Glutamyl-L-cysteine (metabolite signal),[3],2.26E+04 and 4.82E+04 and 4.78E+04
